Measurements from US20160206631A1, “OXYSTEROLS THAT ACTIVATE LIVER X RECEPTOR SIGNALING AND INHIBIT HEDGEHOG SIGNALING” (THE REGENTS OF THE UNIVERSITY OF CALIFORNIA, priority 2010, published 2016).

Legend:
Hedgehog pathway = details: cited from earlier work
[1] = test system: Saos-2 human osteosarcoma cells; assay: Anchorage-independent clonogenic growth of Saos-2 cells; type: cell-based; details: for clonogenic growth: Saos-2, 1 μM, 72 hours, colonies after 10 days (FIG. 4)
Experimental: (§1) Next, cells were harvested and examined for clonogenic growth in non-adherent plates after 10 days of culturing. Data from a representative of two separate experiments are reported as the relative number of colonies formed by cells treated with LXR ligands relative to cells treated with control vehicle (% of control).
(§2) We examined whether LXR activation inhibits the clonogenic growth of human osteosarcoma cells using an anchorage-independent cell growth assay. Saos-2 and U2OS cells were seeded in standard tissue culture plates and treated for 72 hours with control vehicle or 1 μM of TO, 22R, or Oxy16. Following treatments with LXR ligands, the drugs were removed and the cells harvested and plated in methylcellulose media in non-adherent plates (Costar) and the cell colonies formed after 10 days were counted.

[2] = test system: L3.6p1 human pancreatic cancer cells; assay: Clonogenic growth of L3.6p1 pancreatic cancer cells in methylcellulose; type: cell-based; details: 72 hours treatment, colonies counted after 10 days
Experimental: (§3) Following treatment cells were harvested by washing cells twice with phosphate buffered saline (PBS) followed by enzymatically detaching with trypsin/EDTA. Cells were collected then washed twice with PBS. Cells were counted then resuspended in 500 uL of media. The volume of cells required for 2,000 cells from the control group was removed from each group then mixed with methylcellulose (1.2%) containing 30% fetal bovine serum, 1% bovine serum albumin, 10^-4 M 2-mercaptoethanol, and 2 mM L-glutamine. Cells were plated in low-attachment 6 well plates (1 ml/well), each group being plated in triplicate. Following 10 days of incubation, tumor cell colonies consisting of >40 cells were counted using an inverted microscope. Results are presented as the percentage of colonies from each treatment group compared to the control group (Table 2).

[3] = test system: NCI-H929 multiple myeloma cancer stem cells; assay: Percentage of cancer stem cells (CD138 negative, ALDH positive) in NCI-H929 cultures by flow cytometry; type: cell-based, human; details: 1 μM, 96 hours (FIGS. 7, 8)
Experimental: NCI-H929 multiple myeloma cells were treated for 96 hours with control vehicle or 1 μM of each compound as shown. Next, percentage of CD138negative cells in the same number of starting cells from each group was determined by flow cytometry.
NCI-H929 multiple myeloma cells were treated for 96 hours with control vehicle or 1 μM of each compound as shown. Next, percentage of ALDH+ cells in the same number of starting cells from each group was determined by flow cytometry.

[4] = test system: U2OS human osteosarcoma cells; assay: Anchorage-independent clonogenic growth of U2OS cells; type: cell-based; details: 1 μM, 72 hours, colonies after 10 days (FIG. 4)
Experimental: as §1, §2

LXR [5] = assay: LXR target gene expression in C3H10T1/2 cells; details: C3H10T1/2, 48 hours
Excerpt: Next we examined whether LXR activation by LXR agonists inhibits CAPAN-1 CM-induced Hh target gene expression in fibroblastic cells.
As noted above, specific oxysterols are thought to be physiological ligands of LXRs that are classified as partial agonists based on their differential effects on the interaction of LXRs with co-activators and co-repressors compared to those induced by the full LXR agonist TO.

[6] = test system: C3H10T1/2 embryonic fibroblasts; assay: CAPAN-1 conditioned-medium-induced alkaline phosphatase activity in C3H10T1/2 cells; type: cell-based; details: C3H10T1/2, 3 days; TO 2 μM, Oxy16 5 μM, Cyc 4 μM (FIG. 11)
Experimental: Next, cells were treated with DMEM containing 5% FBS or CAPAN-1 CM in the presence or absence of TO, Oxy16, or Cyc. After 3 days, alkaline phosphatase activity assay using whole cell lysates was performed.
(§4) In order to assess the functional activity of Hh proteins produced by CAPAN-1 cells, we examined the ability of CM to induce Hh target gene expression in C3H10T1/2 embryonic fibroblasts.

REH human ALL cells = assay: Clonogenic growth of REH ALL cells; type: cell-based
Experimental: as §3
A similar experiment to that shown above for pancreatic cancer cells was performed using the human ALL cells, REH (Table 3).

LXR [7] = assay: LXR target gene expression by Q-RT-PCR in Saos-2 osteosarcoma cells; type: cell-based, human; details: for expression of LXR target genes ABCA1 and SREBP1c: Saos-2 cells (FIG. 2, 72 hours for TO)
Excerpt: Data from a representative experiment are reported as the Data from a representative experiment are reported as the mean of triplicate determinations±SD relative to the expression level of LXRα (p<0.001 for control vs. both concentrations of TO for ABCA1 and SREBP1c mRNA).
Culturing the cells in varying serum (FBS) concentrations from 1% to 10% had no effect on LXRs or LXR target gene expression levels at baseline.

LXR [8] = assay: ABCA1 (LXR target gene) expression by Q-RT-PCR in M2-10B4 bone marrow stromal cells
Experimental: This was measured by the ability of these molecules to induce the expression of LXR-target genes, including ABCA1, in M2-10B4 bone marrow stromal cells (MSC) after 48 hours of treatment (Table 1).

Hedgehog signaling = assay: CAPAN-1 conditioned-medium-induced Hh target gene expression (Ptch1, HHIP, Gli1) in C3H10T1/2 cells; type: cell-based; details: C3H10T1/2, 48 hours; TO 2 μM, Oxy16 5 μM, Cyc 4 μM (FIG. 10)
Experimental: Next, cells were treated with DMEM containing 5% […] or CAPAN-1 CM in the presence or absence of TO, Oxy16, or Cyc. After 48 hours, RNA was extracted and analyzed by Q-RT-PCR for the expression of Hh target genes Ptch1, HHIP, and Gli1 and normalized to GAPDH expression.
As noted above, Hh signaling appears to play an important role in the initiation and progression of pancreatic cancer (26), and the inhibition of HE signaling using small molecule antagonists inhibits pancreatic cancer cells from growing in vitro and in vivo (50). […] Subsequently, Hh signaling in stromal cells provides a permissive milieu for tumor cells to grow. […] In this Example, we examine this possibility using an in vitro model system in which Hh signaling is induced in C3H10T1/2 embryonic fibroblasts by conditioned-medium (CM) from CAPAN-1 human pancreatic cancer cells.
as §4

[9] = test system: human primary multiple myeloma cells derived from patients; assay: Clonogenic growth of primary multiple myeloma cells from patients in methylcellulose; type: cell-based; details: 1 μM, 96 hours, CD34+ and CD138+ depleted bone marrow mononuclear cells
[10] = test system: human NCI-H929 multiple myeloma cell line; assay: Clonogenic growth of NCI-H929 multiple myeloma cells; type: cell-based; details: 1 μM, 96 hours, colonies after 10 days (FIG. 6)
Experimental: NCI-11929 multiple myeloma cells were treated for 96 hours with control vehicle or 1 μM of each compound as shown. Next, drugs were removed and cells were plated in methylcellulose. Clonogenic growth of colonies determined after 10 days. Data are reported as percentage of colony number normalized to control group.
In order to examine the effect of LXR activation on the clonogenic growth of multiple myeloma cells, the human NCI-H929 multiple myeloma cell line was used.

[11] = test system: Hedgehog signaling pathway; assay: Ptch1 mRNA expression (Hh target gene) by Q-RT-PCR in Saos-2 cells; type: cell-based, human; details: Saos-2, 2% FBS, 72 hours; 2 or 4 τM TO, 4 μM cyclopamine (FIG. 5)
Experimental: Saos-2 cells were cultured in medium containing 2% FBS and were treated at confluence with 4 μM Cyc, 2 or 4 τM TO, alone or in combination for 72 hours. Expression of Ptch1 and Gli1 (data not shown) mRNA was measured by Q-RT-PCR and normalized to GAPDH.

[12] = test system: CAPAN-1 human pancreatic cancer cells; assay: Ihh and Shh mRNA expression in CAPAN-1 cells; type: cell-based; details: cyclopamine 4 μM, TO 2-5 μM, data not shown
Experimental: Expression of Shh and Ihh mRNA in human cultures of pancreatic cancer cells, CAPAN-1, L3.6p1, and E3LZ10.7 were analyzed by Q-RT-PCR and normalized to GAPDH expression. Cells were cultured in DMEM containing 10% FBS and RNA was extracted 3 days after seeding. Data from a representative experiment are reported as the mean of triplicate determinations±SD (p<0.001 for CAPAN-1 vs. other two cell types for Shh and 11 h mRNA expression).
Culturing CAPAN-1 cells in 1% vs. 10% FBS had no effects on their level of mRNA expression for 11th and Shh (data not shown), and treatment of CAPAN-1 cells with the Hh pathway inhibitor cyclopamine (4 μM) or the LXR agonist TO (2-5 μM) had no effect on the expression of Ihh or Shh mRNA in these cells (data not shown).

LXR [13] = assay: LXR target gene expression in human pancreatic cancer cells
[14] = test system: human pancreatic cancer cells; assay: Clonogenic growth of human pancreatic cancer cells in vitro; type: cell-based

Row | Compound | net effect of the LXR agonist on the Hedgehog pathway (Hedgehog pathway) | clonogenic growth [1] | Normalized Colony # (% of control) ([2]; 5 μM) | Raw Colony # ([2]; 5 μM) | Normalized Colony # (% of control) ([2]; 10 μM) | Raw Colony # ([2]; 10 μM) | percentage of cancer stem cells (CD138 negative and ALDH positive cells) [3] | clonogenic growth [4] | CAPAN-1 CM-induced ALP activity [6] | Normalized Colony # (% of control) (REH human ALL cells; 0.1 μM) | Raw Colony # (REH human ALL cells; 0.1 μM) | Normalized Colony # (% of control) (REH human ALL cells; 0.5 μM) | Raw Colony # (REH human ALL cells; 0.5 μM) | expression of LXR target genes ABCA1 and SREBP1c (LXR [7]) | CAPAN-1 CM-induced expression of Hh target genes Ptch1, Gli1, HHIP (Hedgehog signaling) | colony formation (% of control) ([9]; Specimen # 1) | colony formation (% of control) ([9]; Specimen # 2) | clonogenic growth [10] | Ptch1 mRNA expression [11] | expression of Ihh or Shh mRNA [12] | also measured
1 | C[C@H](CCCC(C)(C)O)[C@H]1CC[C@H]2[C@@H]3CC=C4C[C@@H](O)CC[C@]4(C)[C@H]3CC[C@]12C [25-hydroxycholesterol] | leave the Hedgehog pathway active | – | – | – | – | – | – | – | – | – | – | – | – | – | – | – | – | – | – | – | –
2 | CC(C)CC[C@@H](O)[C@](C)(O)[C@H]1CC[C@H]2[C@@H]3CC=C4C[C@@H](O)CC[C@]4(C)[C@H]3CC[C@]12C [Oxy16, (2R,3R)-2-((3S,8S,9S,10R,13S,14S,17S)-3-Hydroxy-10,13-dimethyl-2,3,4,7,8,9,10,11, 12,13,14,15,16,17-tetradecahydro-1H-cyclopenta[a]phenanthren-17-yl)-6-methyl-heptane-2,3-diol] | – | significant inhibition | 22 % of control | 53 | 10 % of control | 24 | significantly reduced | significant inhibition | inhibited | 71 % of control | 65 | 15 % of control | 14 | significant expression | inhibited | 13 % of control | 20 % of control | inhibited clonogenic growth | – | – | potency in blocking clonogenic growth of osteosarcoma cells versus naturally occurring counterparts ([1]; osteosarcoma cells, compared with 22R and 20S): more potent than its naturally occurring counterparts; induction of ABCA1 and ABCG1 (LXR [5]): induction; induction of LXR target genes ABCA1 and ABCG1 (LXR [7]; osteosarcoma cells, preliminary studies (FIG. 3)): strong induction; fold induction at 2 µM (LXR [8]; M210B4, 48 h, read-out: ABCA1 gene expression, Fold Induction ± SD): 2.1 ± 0.5; LXR signaling activation (LXR [8]; bone marrow stromal cells): Activate LXR Signaling
3 | C=C(C)CCC[C@](C)(O)C1CCC2C3CC=C4C[C@@H](O)CC[C@]4(C)C3CC[C@@]21C (stereo partly shown) [Oxy 13] | leave the Hedgehog pathway active | – | – | – | – | – | – | – | – | – | – | – | – | – | – | – | – | – | – | – | –
4 | O=S(=O)(c1ccccc1)N(CC(F)(F)F)c1ccc(C(O)(C(F)(F)F)C(F)(F)F)cc1 [TO, TO901317, reference compound] | – | significant inhibition | 41 % of control | 100 | 15 % of control | 37 | significantly reduced | significant inhibition | significantly inhibited | 48 % of control | 44 | 37 % of control | 34 | robust expression | significantly inhibited | 27 % of control | 18 % of control | inhibited clonogenic growth | significant inhibition | no effect | expression of LXR target genes (LXR [13]): induce the expression of LXR target genes; clonogenic growth [14]: significantly inhibit
5 | CC1=C2C[C@H]3[C@@H](CC=C4C[C@@H](O)CC[C@@]43C)[C@@H]2CC[C@]12O[C@@H]1C[C@H](C)CN[C@H]1[C@H]2C [cyclopamine] | – | – | – | – | – | – | – | – | inhibited | – | – | – | – | – | completely inhibited | – | – | – | significant inhibition | no effect | –
